Laboratory results: patent publication US20160318987A1 (MEDIMMUNE LIMITED, priority 2013, published 2016)
Like-named read-outs stand apart in the source and are kept apart here. Where a SMILES comes first, the peptide text is derived from it. Where no end group is shown, it is not given here. Side-chain parts run from the residue outwards. [ ]: non-standard residue; d: D form. αMeF = C[C@](N)(Cc1ccccc1)C(=O)O; Nle = CCCC[C@H](N)C(=O)O; Aib = CC(C)(N)C(=O)O; Mal = maleimide

Columns and labels:
hGLP-1R = molecular target: T1, hGLP-1R (Homo sapiens, UniProt P43220); assay: cAMP functional assay, cells expressing human GLP-1 receptor (primary assay); type: cell-based; conditions: n = 2
T1 construct: expressed in transfected cells
Protocol: (§1) The biological activities/receptor potencies of the synthetic GLP-1 peptides described herein are suitably tested for biological activity, e.g., stimulation of one or more cellular receptor responses. Stable cell lines expressing human, mouse, rat, or dog GLP-1 receptor (GLP-1R), glucagon receptor (GCGR) or glucose-dependent insulinotropic peptide (gastric inhibitory polypeptide) receptor (GIPR) are generated in HEK293 cells or CHO cells by standard methods.
(§2) cAMP assays were performed using “assay buffer”: Assay Buffer: 0.1% BSA (Sigma #A3059) in HBSS (Sigma #H8264) with 25 mM HEPES, pH 7.4 and containing 0.5 mM IBMX (Sigma #17018).
(§3) Low protein binding 384-well plates (Greiner #781280) are used to perform eleven 1 in 5 serial dilutions of test samples which are made in assay buffer. All sample dilutions are made in duplicate.
(§4) A frozen cryo-vial of cells expressing the receptor of interest is thawed rapidly in a water-bath, transferred to pre-warmed assay buffer and spun at 240× g for 5 minutes. Cells are re-suspended in assay buffer at a batch-dependent optimized concentration (e.g. hGCGR cells at 2×10^5 cells/ml, hGLP-1R and hGIPR cells at 1×10^5 cells /ml).
(§5) From the dilution plate, a 5 μL replica is stamped onto a black shallow-well u-bottom 384-well plate (Corning #3676). To this, 5 μL cell suspension is added and the plates incubated at room temperature for 30 minutes.
(§6) cAMP levels are measured using a commercially available cAMP dynamic 2 HTRF kit (Cisbio, Cat #62AM4PEJ), following the two step protocol as per manufacturer's recommendations. In brief; anti-cAMP cryptate (donor fluorophore) and cAMP-d2 (acceptor fluorophore) are made up separately by diluting each 1/20 in conjugate & lysis buffer provided in the kit. 5 μL anti-cAMP cryptate is added to all wells of the assay plate, and 5 μL cAMP-d2 is added to all wells except non-specific binding (NSB) wells, to which conjugate and lysis buffer are added. Plates are incubated at room temperature for one hour and then read on an Envision (Perkin Elmer) using excitation wavelength of 320 nm and emission wavelengths of 620 nm & 665 nm. EC50 values of the synthetic peptides determined in cAMP assays are then determined.

hGIP-R = molecular target: T2, hGIP-R (Homo sapiens, UniProt P48546); assay: cAMP functional assay, cells expressing human GIP receptor (primary assay); type: cell-based; conditions: n = 2
T2 construct: expressed in transfected cells
T2 sequence (P48546 22-466): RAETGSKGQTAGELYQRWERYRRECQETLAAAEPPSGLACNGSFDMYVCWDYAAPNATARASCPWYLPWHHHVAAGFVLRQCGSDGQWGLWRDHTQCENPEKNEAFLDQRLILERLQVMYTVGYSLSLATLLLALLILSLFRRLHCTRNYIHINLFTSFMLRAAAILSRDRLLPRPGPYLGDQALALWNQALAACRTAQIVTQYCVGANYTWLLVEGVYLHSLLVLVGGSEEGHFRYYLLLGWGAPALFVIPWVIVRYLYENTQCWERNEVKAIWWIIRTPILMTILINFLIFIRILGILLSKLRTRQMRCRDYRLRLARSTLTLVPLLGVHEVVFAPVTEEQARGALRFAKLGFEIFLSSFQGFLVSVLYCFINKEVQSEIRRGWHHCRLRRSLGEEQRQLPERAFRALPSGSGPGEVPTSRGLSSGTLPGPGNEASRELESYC
Protocol: as §1, §2, §3, §4, §5, §6

T1 sequence (P43220 24-463): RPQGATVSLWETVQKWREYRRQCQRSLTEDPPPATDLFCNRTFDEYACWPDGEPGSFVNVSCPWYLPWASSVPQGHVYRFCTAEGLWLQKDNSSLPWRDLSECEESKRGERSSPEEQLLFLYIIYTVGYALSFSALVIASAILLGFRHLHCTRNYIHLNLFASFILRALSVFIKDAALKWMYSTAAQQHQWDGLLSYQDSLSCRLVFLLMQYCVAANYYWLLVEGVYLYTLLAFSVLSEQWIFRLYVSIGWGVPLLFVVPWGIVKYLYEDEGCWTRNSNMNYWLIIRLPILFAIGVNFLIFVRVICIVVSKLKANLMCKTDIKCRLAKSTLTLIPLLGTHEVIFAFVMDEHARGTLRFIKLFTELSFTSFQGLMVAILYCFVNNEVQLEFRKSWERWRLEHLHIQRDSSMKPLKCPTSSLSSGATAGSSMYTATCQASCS

Row | Compound | EC50 (hGLP-1R) [nM] | EC50 (hGIP-R) [nM] | EC50 (hGLP-1R; read-out: Primary assay EC50 (n = 2) hGLP-1R) [nM]
1 | CC[C@H](C)[C@H](NC(=O)C(C)(C)NC(=O)[C@H](CCC(=O)O)NC(=O)[C@H](CCCCN)NC(=O)[C@H](C)NC(=O)[C@H](C)NC(=O)[C@H](CCC(N)=O)NC(=O)CNC(=O)[C@H](CCC(=O)O)NC(=O)[C@H](CC(C)C)NC(=O)C(C)(C)NC(=O)[C@H](CO)NC(=O)[C@H](CO)NC(=O)[C@@H](NC(=O)[C@H](CC(=O)O)NC(=O)[C@H](CO)NC(=O)[C@@H](NC(=O)C(C)(C)NC(=O)[C@@H](NC(=O)CNC(=O)[C@H](CCC(=O)O)NC(=O)C(C)(C)NC(=O)[C@@H](N)Cc1c[nH]cn1)[C@@H](C)O)[C@@H](C)O)C(C)C)C(=O)N[C@@H](C)C(=O)NC(C)(C)C(=O)N[C@@H](CC(C)C)C(=O)N[C@H](C(=O)N[C@@H](CCCCN)C(=O)NCC(=O)N[C@@H](CCCNC(=N)N)C(N)=O)C(C)C [SEQ ID NO: 16, H-(Aib)^2-EGT^5-(Aib)^6-TSDV^10 SS-(Aib)^13-LE^15 GQAAK^20 E-(Aib)^22-IA-(Aib)^25 LVKGR^30] (H-H[Aib]EGT[Aib]TSDVSS[Aib]LEGQAAKE[Aib]IA[Aib]LVKGR-NH2) | 102 | 102 | 
2 | CCCC[C@H](NC(=O)[C@H](C)NC(=O)[C@@H](NC(=O)[C@H](CCCC)NC(=O)[C@H](CCC(=O)O)NC(=O)[C@H](CCCCN)NC(=O)[C@H](C)NC(=O)[C@H](C)NC(=O)[C@H](CCC(N)=O)NC(=O)CNC(=O)[C@H](CCC(=O)O)NC(=O)[C@H](CC(C)C)NC(=O)[C@H](CCCC)NC(=O)[C@H](CO)NC(=O)[C@H](CO)NC(=O)[C@@H](NC(=O)[C@H](CC(=O)O)NC(=O)[C@H](CO)NC(=O)[C@@H](NC(=O)[C@H](CCCC)NC(=O)[C@@H](NC(=O)CNC(=O)[C@H](CCC(=O)O)NC(=O)C(C)(C)NC(=O)[C@@H](N)Cc1c[nH]cn1)[C@@H](C)O)[C@@H](C)O)C(C)C)[C@@H](C)CC)C(=O)N[C@@H](CC(C)C)C(=O)N[C@H](C(=O)N[C@@H](CCCCN)C(=O)NCC(=O)N[C@@H](CCCNC(=N)N)C(N)=O)C(C)C [SEQ ID NO: 17, H-(Aib)^2-EGT^5-(Nle)^6-TSDV^10 SS-(Nle)^13-LE^15 GQAAK^20 E-(Nle)^22-IA-(Nle)^25 LVKGR^30] (H-H[Aib]EGT[Nle]TSDVSS[Nle]LEGQAAKE[Nle]IA[Nle]LVKGR-NH2) | 3.48 | 102 | 
3 | CC[C@H](C)[C@H](NC(=O)[C@H](Cc1ccccc1)NC(=O)[C@H](CCC(=O)O)NC(=O)[C@H](CCCCN)NC(=O)[C@H](C)NC(=O)[C@H](C)NC(=O)[C@H](CCC(N)=O)NC(=O)CNC(=O)[C@H](CCC(=O)O)NC(=O)[C@H](CC(C)C)NC(=O)[C@H](Cc1ccccc1)NC(=O)[C@H](CO)NC(=O)[C@H](CO)NC(=O)[C@@H](NC(=O)[C@H](CC(=O)O)NC(=O)[C@H](CO)NC(=O)[C@@H](NC(=O)[C@H](Cc1ccccc1)NC(=O)[C@@H](NC(=O)CNC(=O)[C@H](CCC(=O)O)NC(=O)C(C)(C)NC(=O)[C@@H](N)Cc1c[nH]cn1)[C@@H](C)O)[C@@H](C)O)C(C)C)C(=O)N[C@@H](C)C(=O)N[C@@H](Cc1ccccc1)C(=O)N[C@@H](CC(C)C)C(=O)N[C@H](C(=O)N[C@@H](CCCCN)C(=O)NCC(=O)N[C@@H](CCCNC(=N)N)C(N)=O)C(C)C [SEQ ID NO: 18, H-(Aib)^2-EGT^5-FTSDV^10 SS-(F)^13-LE^15 GQAAK^20 EFIA-(F)^25 LVKGR^30] (H-H[Aib]EGTFTSDVSSFLEGQAAKEFIAFLVKGR-NH2) | 0.0163 | 102 | 
4 | H-(Aib)^2-EG-(S)^5-(α-MeF)^6-TSDV^10 SS-(α-MeF)^13-LE^15 GQAAK^20 E-(α-MeF)^22-IA-(α-MeF)^25 LVKG-(G)^30-(SSG)3-(Cys-Mal-mPEG)[40 kD] (H[Aib]EGS[αMeF]TSDVSS[αMeF]LEGQAAKE[αMeF]IA[αMeF]LVKGGSSGSSGSSGC([Mal-mPEG 40 kDa]); not fully specified (C-terminus); printed as H-(Aib)^2-EG-(S)^5-(α-MeF)^6-TSDV^10 SS-(α-MeF)^13-LE^15 GQAAK^20 E-(α-MeF)^22-IA-(α-MeF)^25 LVKG-(G)^30-(SSG)3-(Cys-Mal-mPEG)[40 kD]) [SEQ ID NO: 50] |  |  | 0.0278
